pIC50: −log10 of the molar value. One block for each compound: values may come before it.
Assays:
Type in all cases: biochemical
recombinant human PDE2A4 [1] = target: T1, recombinant human PDE2A4 (Homo sapiens, UniProt O00408, P38L/T213A/V664A); test: cGMP stimulation of hsPDE2A4 cAMP-hydrolyzing activity; settings: 10 μM cGMP; cAMP substrate 30 μM ([3H]-cAMP/cAMP)
T1 construct: made in house; host or cells: QM-7 cells (quail myoblast line), transient transfection, crude cell lysate
Procedure: FIG. 4. cGMP stimulation of hsPDE2A4 activity. QM7 lysate containing recombinant human PDE2A4 was used in stimulation assay. […] The enzyme activities in the absence or presence of 10 μM cGMP were compared. Data analysis was performed using Prism software.
(§1) To express in active form, human PDE2A4 cDNA was cloned downstream of the CMV promoter into pcDNA3.1/V5-His-TOPO vector, and the plasmid was transiently transfected into QM-7 cells by lipofectamine-plus reagent (Invitrogen). Forty-eight hours after the transfection, the QM-7 cells were lysed in buffer containing 50 mM Tris/HCl, 10 mM NaCl, 5 mM EGTA, 1 mM EDTA, 1 mM DTT and proteinase inhibitor cocktail (Roche). The cell lysate was used as a source for recombinant hsPDE2A4 enzyme.
(§2) The enzyme activity assay was performed according to Thompson et al, Ann N Y Acad Sci, 185:36-41 (1971) and Alvarez et al, Anal Biochem, 203:76-82 (1992) in the presence of 50 mM Tris/HCl, pH 8.0, 5 mM MgCl2, 4 mM 2-mercaptoethanol and 0.3 mg/ml BSA. […] The experiments were performed in duplicates for each substrate concentration. The Km and Vmax were calculated with Michaelis-Menten equation on Prism software.
The enzymatic activity of recombinant human PDE2A4 can be stimulated by cGMP, a unique characteristic for PDE2 gene family (FIG. 4).

recombinant human PDE2A4 [2] = target: T1, recombinant human PDE2A4; test: Enzyme activity assay, Km and Vmax of human PDE2A4 for cAMP and cGMP
Procedure: as §1, §2

recombinant human PDE2A4 [3] = target: T1, recombinant human PDE2A4; test: Inhibition of recombinant human PDE2A4 enzyme activity (QM7 lysate); settings: QM7 lysate containing recombinant human PDE2A4
Procedure: FIG. 3. EHNA inhibition of hsPDE2A4 activity. QM7 lysate containing recombinant human PDE2A4 was used in inhibition assay with increased concentration of inhibitors (EHNA and Rolipram; 10^−9-10^−[…]). The data and graph were analyzed and generated using Prism software.
as §1, §2

[4] = substrate of human PDE2A4, QM-7 cell lysate, Michaelis-Menten, Prism

T1 sequence (O00408 1-932 isoform O00408-4 P29L/T204A/V655A): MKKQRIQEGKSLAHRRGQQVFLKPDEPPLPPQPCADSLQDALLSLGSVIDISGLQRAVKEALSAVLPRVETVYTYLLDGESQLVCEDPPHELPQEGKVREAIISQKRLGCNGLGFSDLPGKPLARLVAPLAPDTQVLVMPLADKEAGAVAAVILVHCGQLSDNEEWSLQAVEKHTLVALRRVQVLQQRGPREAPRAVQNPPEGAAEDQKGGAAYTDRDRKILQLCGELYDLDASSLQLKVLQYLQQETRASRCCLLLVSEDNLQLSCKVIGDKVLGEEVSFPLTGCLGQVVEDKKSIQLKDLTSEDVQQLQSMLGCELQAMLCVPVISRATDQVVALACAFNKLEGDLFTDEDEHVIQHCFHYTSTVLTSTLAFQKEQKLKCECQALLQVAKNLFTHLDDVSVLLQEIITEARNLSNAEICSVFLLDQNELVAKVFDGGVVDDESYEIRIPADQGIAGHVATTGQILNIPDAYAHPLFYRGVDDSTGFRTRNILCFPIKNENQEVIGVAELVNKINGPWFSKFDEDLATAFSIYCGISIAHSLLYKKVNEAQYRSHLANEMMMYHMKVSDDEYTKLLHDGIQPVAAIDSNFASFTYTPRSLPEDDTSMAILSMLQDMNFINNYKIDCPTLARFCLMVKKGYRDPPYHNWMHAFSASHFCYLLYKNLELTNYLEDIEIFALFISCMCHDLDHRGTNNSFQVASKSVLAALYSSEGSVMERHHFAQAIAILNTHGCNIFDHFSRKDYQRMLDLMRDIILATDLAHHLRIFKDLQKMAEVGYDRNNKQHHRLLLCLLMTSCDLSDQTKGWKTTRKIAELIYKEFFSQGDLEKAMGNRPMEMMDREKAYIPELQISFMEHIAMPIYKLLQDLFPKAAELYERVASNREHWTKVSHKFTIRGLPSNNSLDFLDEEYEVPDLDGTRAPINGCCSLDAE

stimulation of activity for hydrolyzing cAMP (recombinant human PDE2A4 [1]): elevated more than three-fold
affinity of human PDE2A4 for cGMP relative to cAMP (recombinant human PDE2A4 [2]; cGMP versus cAMP): ~2 fold
Km (recombinant human PDE2A4 [2]; [4]): 17.5 µM
Vmax (recombinant human PDE2A4 [2]; [4]): Vmax = 334.4 ± 16.0 pmol/mg/min
SMILES: Nc1nc2c(ncn2[C@@H]2O[C@@H]3COP(=O)(O)O[C@H]3[C@H]2O)c(=O)[nH]1 [cGMP, cyclic guanosine 5′ monophosphate]

inhibitory effect on human PDE2A4 enzyme activity (recombinant human PDE2A4 [3]; inhibitors 10^−9-10^−4 μM (FIG. 3)): no inhibitory effect
SMILES: COc1ccc(C2CNC(=O)C2)cc1OC1CCCC1 (stereo not drawn) [Rolipram]

pIC50 (recombinant human PDE2A4 [3]; inhibitors 10^−9-10^−4 μM, read-out: IC50, inhibition of enzymatic activity of recombinant human PDE2A4): 5.96
SMILES: CCCCCCC(C(C)O)n1cnc2c(N)ncnc21 (stereo not drawn) [EHNA, erythro-9-(2-hydroxy-3-nonyl)adenine]
